Assay results from patent US20230346952A1, “CANNABINOID GLYCOSIDE PRODRUGS AND METHODS OF SYNTHESIS” (priority 2015, published 2023).

What was measured:
[1] = Antimicrobial activity observed in phytocannabinoid glycosylation reaction mixtures; settings: large-scale glycosylation reaction mixtures
[2] = biological target: T1, safety screen panel of human pharmacological targets (Homo sapiens, UniProt P46098); test: biochemical; settings: read-out: percent inhibition: 5-HT3 (h) (antagonist radioligand)
T1 sequence (P46098 24-478): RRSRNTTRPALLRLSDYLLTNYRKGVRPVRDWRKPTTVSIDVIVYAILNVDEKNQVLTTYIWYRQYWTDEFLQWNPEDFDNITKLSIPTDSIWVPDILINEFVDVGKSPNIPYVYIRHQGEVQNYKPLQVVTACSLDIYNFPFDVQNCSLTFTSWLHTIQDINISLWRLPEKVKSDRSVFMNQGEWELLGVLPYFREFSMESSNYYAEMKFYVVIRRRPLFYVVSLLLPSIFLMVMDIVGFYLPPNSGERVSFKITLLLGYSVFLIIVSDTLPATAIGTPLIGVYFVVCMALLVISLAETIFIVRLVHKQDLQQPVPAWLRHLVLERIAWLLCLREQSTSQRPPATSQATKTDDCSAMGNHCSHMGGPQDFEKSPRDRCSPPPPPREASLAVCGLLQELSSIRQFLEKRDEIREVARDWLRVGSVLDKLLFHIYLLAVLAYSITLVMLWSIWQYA

[3] = Rat plasma toxicokinetics post VB302 administration at 1,000 mg/kg; settings: both, Sprague Dawley, po, 1000 mg/kg, AUC in plasma, post VB302 oral gavage 1,000 mg/kg, 1, 2, 6, 24 hours, label = analyte in plasma
[4] = biological target: T2, human cannabinoid receptor type 1 (CB1R) (Homo sapiens, UniProt P21554); format: binding; settings: 10 µM test compound; 2.0 nanomolar [3H] SR141716A; human recombinant Chem-1 cells; 90 minutes at 37 C
T2 construct: expressed in transfected cells; host or cells: Chem-1 cells

[5] = test system: Lallzyme Beta™ (Lallemand); test: In vitro digestion with Lallzyme Beta; settings: 5 mg/ml Lallzyme Beta, 20 mM citrate buffer pH 4.0, 44° C.; HPLC
[6] = Rat plasma toxicokinetics post VB311 administration at 1,000 mg/kg; settings: for relative amount in plasma: label = analyte
[7] = biological target: safety screen panel of human pharmacological targets (Homo sapiens, UniProt P21554); test: biochemical; settings: read-out: percent inhibition: CB1 (h) (agonist radioligand)
[8] = test system: Vinotaste Pro (Novozymes); test: In vitro digestion with Vinotaste Pro; settings: same digestion conditions as for Lallzyme Beta; HPLC
glycoside hydrolases = test: In vitro digestion screening with commercially available glycoside hydrolases (Table K); settings: Enzyme 1 of Table K
[9] = 24 hours post VB311 oral gavage

Chain of safety screen panel of human pharmacological targets (Homo sapiens, UniProt P21554) (P21554 whole entry): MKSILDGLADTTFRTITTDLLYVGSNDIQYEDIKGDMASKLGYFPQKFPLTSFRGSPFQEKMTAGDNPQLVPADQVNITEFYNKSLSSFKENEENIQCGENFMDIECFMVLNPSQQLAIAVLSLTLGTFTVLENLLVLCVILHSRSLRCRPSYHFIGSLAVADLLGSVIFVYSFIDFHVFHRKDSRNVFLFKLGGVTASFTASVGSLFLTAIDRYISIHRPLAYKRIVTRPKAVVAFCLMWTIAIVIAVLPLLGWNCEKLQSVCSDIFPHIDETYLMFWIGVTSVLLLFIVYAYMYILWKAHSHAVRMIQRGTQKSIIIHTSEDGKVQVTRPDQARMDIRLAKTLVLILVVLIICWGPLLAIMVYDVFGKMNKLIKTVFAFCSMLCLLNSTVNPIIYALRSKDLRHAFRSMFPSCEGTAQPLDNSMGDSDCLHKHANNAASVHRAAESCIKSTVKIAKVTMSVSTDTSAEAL
T2 sequence (P21554 whole entry): as above

Row | SMILES | antimicrobial activity [1] | inhibition at 10 µM [2] [%] | AUC [3] [ng·h/mL] | percent displacement of [3H] SR141716A at human CB1R [4] [%] | digestion by Lallzyme Beta (extent / products) [5] | relative amount in plasma ([6]; 1 hour post VB311 oral gavage) | relative amount in plasma ([6]; 2 hours post VB311 oral gavage) | relative amount in plasma ([6]; 6 hours post VB311 oral gavage) | relative amount in plasma [6, 9] | plasma concentration of VB302 relative to VB311 ([6]; after VB311 administration) [x] | inhibition at 10 µM [7] [%] | digestion by Vinotaste Pro (extent / products) [8] | digestion by glycoside hydrolase (activity / product) (glycoside hydrolases)
1 | CCCCCc1cc(O)c2c(c1)OC(C)(C)[C@@H]1CCC(C)=C[C@@H]21 [VB301, Δ9-Terahydrocannabinol, reference compound] | noticeable antimicrobial activity | -21 | 72 | – | – | – | – | – | – | – | – | – | –
2 | CCCCCc1cc(O[C@@H]2O[C@H](CO)[C@@H](O)[C@H](O)[C@H]2O)c2c(c1)OC(C)(C)[C@@H]1CCC(C)=C[C@@H]21 [VB302, Δ9THC-1-O-glucopyranoside] | – | -4 | 167000 | -3 | unable to hydrolyze VB302 back to THC | Minor quantities | Minor quantities | predominant THC-glycoside present in the plasma | relative abundance was greatly increased | 2.2 | -3 | – | –
3 | CCCCCc1cc(O[C@@H]2O[C@H](CO[C@@H]3O[C@H](CO)[C@@H](O)[C@H](O)[C@H]3O)[C@@H](O[C@@H]3O[C@H](CO)[C@@H](O)[C@H](O)[C@H]3O)[C@H](O)[C@H]2O)c2c(c1)OC(C)(C)[C@@H]1CCC(C)=C[C@@H]21 [VB311] | – | -13 | – | 3 | very low activity | relative majority of glycosides present in the plasma | majority of glycosides present in the plasma | extensively modified | almost completely digested | – | 3 | capable of hydrolyzing | digests VB311 to V310
